Experimental data: ChEMBL document CHEMBL3244166, “Syntheses and biological activities of basically substituted isoalloxazines” (J Med Chem, 1978)

Key:
Rattus norvegicus [1] = assay: In vivo inhibition of riboflavin activity in weanling Wistar rat assessed as change in body weight at 2 mg/kg/day administered by stomach tube prior to feeding with riboflavin-deficient diet measured for 28 days (reference value: 3 +/- 1 g); format: functional
[2] = Toxicity in weanling Wistar rat assessed as survival at 2 mg/rat/day administered by stomach tube prior to feeding with riboflavin-deficient diet measured for 28 days relative to control; conditions: in vivo, oral
Rattus norvegicus [3] = assay: Induction of riboflavin-like activity in weanling Wistar rat assessed as change in body weight at 2 mg/kg/day administered by stomach tube prior to feeding with riboflavin-deficient diet measured for 28 days in presence of 20 ug/day riboflavin (reference value: 3 +/- 1 g); format: functional
Rattus norvegicus [4] = assay: Induction of riboflavin-like activity in weanling Wistar rat assessed as change in body weight at 2 mg/kg/day administered by stomach tube prior to feeding with riboflavin-deficient diet measured for 28 days in presence of 40 ug/day riboflavin (reference value: 3 +/- 1 g); format: functional
Rattus norvegicus [5] = assay: In vivo inhibition of riboflavin activity in weanling Wistar rat assessed as decrease in body weight at 2 mg/kg/day administered by stomach tube prior to feeding with riboflavin-deficient diet measured for >= 14 days (reference value: 3 +/- 1 g); format: functional
Rattus norvegicus [6] = assay: Induction of riboflavin-like activity in weanling Wistar rat assessed as change in body weight at 2 mg/kg/day administered by stomach tube prior to feeding with riboflavin-deficient diet measured for 28 days in presence of 60 ug/day riboflavin (reference value: 3 +/- 1 g); format: functional

SMILES	Activity (Rattus norvegicus [1]) [g]	survival at 672 h [2] [%]	Activity (Rattus norvegicus [3]) [g]	Activity (Rattus norvegicus [4]) [g]	Activity (Rattus norvegicus [5]) [g]	Activity (Rattus norvegicus [6]) [g]
Cc1cc2nc3c(=O)[nH]c(=O)nc-3n(CCN(CCO)CCO)c2cc1Cl.Cl	0	100				
Cc1cc2nc3c(=O)[nH]c(=O)nc-3n(CCN(CCO)CCO)c2cc1C	-10	40	35			
CCc1cc2nc3c(=O)[nH]c(=O)nc-3n(CCN(CCO)CCO)c2cc1C.Cl	-25	60	-2	21		
Cc1cc2c(cc1Cl)nc1c(=O)[nH]c(=O)nc-1n2CCN(CCO)CCO.Cl	-8	100				
O=c1nc2n(CCN(CCO)CCO)c3cc(Cl)c(Cl)cc3nc-2c(=O)[nH]1	6	100				
CCc1cc2nc3c(=O)[nH]c(=O)nc-3n(CCN(CCO)CCO)c2cc1CC.Cl		25	-9	7	-26	33
